Measured values from patent publication US20240277767A1, “METHODS AND USES” (PROLEUKOCYTE AB, priority 2021, published 2024).

Legend:
Nrf2 = molecular target: T1, Nrf2 (Homo sapiens, UniProt Q16236); conditions: presumably via inhibition of TrxR (Saei et al., 2020); cited from earlier work
T1 sequence (Q16236 1-605): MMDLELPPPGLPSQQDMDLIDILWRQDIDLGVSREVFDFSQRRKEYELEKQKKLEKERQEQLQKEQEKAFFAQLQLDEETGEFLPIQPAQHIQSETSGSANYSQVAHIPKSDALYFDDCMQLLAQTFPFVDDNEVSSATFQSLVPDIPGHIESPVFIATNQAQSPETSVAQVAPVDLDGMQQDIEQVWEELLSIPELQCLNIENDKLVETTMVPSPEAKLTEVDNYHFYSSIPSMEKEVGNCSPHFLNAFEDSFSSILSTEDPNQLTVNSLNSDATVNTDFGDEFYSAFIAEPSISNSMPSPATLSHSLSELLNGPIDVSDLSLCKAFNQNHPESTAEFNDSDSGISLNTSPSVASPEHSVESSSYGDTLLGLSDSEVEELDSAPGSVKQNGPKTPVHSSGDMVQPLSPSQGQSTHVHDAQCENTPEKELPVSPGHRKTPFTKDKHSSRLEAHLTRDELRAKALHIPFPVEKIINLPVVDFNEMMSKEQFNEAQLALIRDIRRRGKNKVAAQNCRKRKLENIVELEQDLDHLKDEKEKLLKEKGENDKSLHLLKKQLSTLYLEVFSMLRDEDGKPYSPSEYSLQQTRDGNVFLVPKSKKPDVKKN

ANRU TIL = assay: TIL infiltration into ANRU spheroids (flow cytometry, confocal microscopy); format: cell-based, human; conditions: 48 h co-culture
Description: To study TIL infiltration into spheroids, eight spheroids of each condition were pooled and carefully washed twice with PBS, dissociated with trypsin and then stained with anti-CD3, CD4 and anti-CD8. The supernatant was collected to measure the non-infiltrated fraction.
For confocal microscopy, spheroids were fixed with 4% PFA (Thermo Scientific). Spheroids stained with anti-CD8a followed by the secondary antibody (goat-anti-mouse IgG-AF647, Biolegend) and Hoechst 33342 dye (Invitrogen). Spheroids were cleared with 88% glycerol (Sigma) overnight, transferred to 8-well u-slides (Ibidi) and imaged with the Zeiss LSM800 confocal microscope. Spheroids were also analyzed for T cell infiltration using flow cytometry, see above.

NK cells [1] = assay: IFNγ release (ELISA) by pre-treated NK cells after H2O2 exposure; format: cell-based, human
Procedure: (§1) Lymphocytes were pre-treated for 18 h with Auranofin (AUF, with the concentration 1 μg/mL for NK cells and 0.5 μg/mL for TIL, if not indicated differently), DL-Sulforaphane (SUL) or Dimethyl Fumarate (DMF) (all Sigma-Aldrich) at indicated concentrations.
(§2) For Nrf2 inhibition, NK cells were treated with 50 μM ML-385 (Sigma-Aldrich) in parallel. For H2O2 treatment, lymphocyte cells were washed and resuspended to 1×10^6 cells/mL in medium and exposed to indicated H2O2 (Sigma-Aldrich) concentration for 1 h at 37° C. Cells were washed with medium and then used for further experiments. For monocyte experiments, autologous NK cell-monocytes or TIL-monocytes were used. NK cells/TIL were isolated and pre-treated with 0.5 μg/mL AUF, as described above, and co-cultured with unstimulated at the ratio, 1:2 M:NK, or stimulated monocytes at the ratio, 1:1 M:NK, if not indicated otherwise. Stimulated monocytes were activated with 100 ng/ml PMA for 1 min, washed and added at indicated ratio, the number of NK cell/TIL was kept constant. As control, H2O2 was used at indicated concentration. […]
For cytokine release assay, NK cells and TIL were cultured with indicated tumour cells at the effector target ratio 4:1 (E:T) for 24 h in U-bottom plates. IFNγ secretion was measured using human IFN-γ ELISA development kit (Mabtech) following the manufacturer's instructions.

[2] = system: Nrf2 target genes (NQO1, HMOX1, TXNRD1, Keap1); assay: qPCR of classical Nrf2 target genes in TIL; format: cell-based, human
Procedure: (§3) Lymphocytes were pre-treated with AUF, SUL or DMF as described above. RNA was isolated using TRIzol™ Plus RNA Purification Kit (Invitrogen). cDNA was generated using the iScript™ cDNA Synthesis Kit (Bio-Rad) and qPCR was done using iTaq™ Universal SYBR® Green Supermix (Bio-Rad) in the CFX96 Touch Real-Time PCR Detection System (Bio-Rad). Fold change expression from untreated cells was calculated using the 2^-ΔΔCt formula with b-actin as reference gene. Evaluated genes were NAD(P)H Quinone Dehydrogenase 1 (NQO1), Kelch Like ECH Associated Protein 1 (Keap1), Heme Oxygenase 1 (HMOX1) and Thioredoxin Reductase 1 (TXNRD1).

[3] = system: tumour infiltrating lymphocytes (TIL); assay: Intracellular ROS levels in TIL (CM-H2DCFDA, flow cytometry); format: cell-based, human
Procedure: For Nrf2 inhibition, NK cells were treated with 50 μM ML-385 (Sigma-Aldrich) in parallel. For H2O2 treatment, lymphocyte cells were washed and resuspended to 1×10^6 cells/mL in medium and exposed to indicated H2O2 (Sigma-Aldrich) concentration for 1 h at 37° C. Cells were washed with medium and then used for further experiments. For monocyte experiments, autologous NK cell-monocytes or TIL-monocytes were used. NK cells/TIL were isolated and pre-treated with 0.5 μg/mL AUF, as described above, and co-cultured with unstimulated at the ratio, 1:2 M:NK, or stimulated monocytes at the ratio, 1:1 M:NK, if not indicated otherwise. Stimulated monocytes were activated with 100 ng/ml PMA for 1 min, washed and added at indicated ratio, the number of NK cell/TIL was kept constant. As control, H2O2 was used at indicated concentration. Cells were co-cultured for 2 h and then effector cells were stained for intracellular ROS (see flow cytometry) or used as effector cells in Cr^51 release assay (E:T ratio 10:1).
For TIL, T cells were pre-incubated with 10 μM CM-H2DCFDA (Thermo Fisher Scientific) solution in RPMI for 30 min at 37° C. prior to H2O2 treatment and then stained with anti-CD3, anti-CD4 and anti-CD8.

[4] = system: Nrf2 target genes (NQO1, HMOX1, TXNRD1, Keap1); assay: qPCR of classical Nrf2 target genes in NK cells; format: cell-based, human
Procedure: as §3

NK cells [5] = assay: Viability of pre-treated NK cells after H2O2 treatment (flow cytometry); format: cell-based, human; conditions: alive NK cells 4 h after H2O2 treatment, vs untreated NK cells
Procedure: as §1, §2
All antibodies (see Table 1) and FACS reagents were used according to manufactures recommendation, if not stated otherwise. […] Samples were fixed with 2% PFA (Thermo scientific) for 15 min before acquired on a NovoCyte (ACEA Biosciences) and analysed using FlowJo Software (TreeStar).

CC(=O)OC[C@H]1O[C@@H]([S-])[C@H](OC(C)=O)[C@@H](OC(C)=O)[C@@H]1OC(C)=O.CCP(CC)CC.[Au+] [AUF, Auranofin]
Activation of Nrf2 (Nrf2): strong activator of Nfr2
Capacity of TIL to infiltrate the spheroid (ANRU TIL): no difference
Difference between 18 h and 24 h pre-treatment or 30 min pulse followed by 17.5 h incubation (NK cells [1]; NK cells, IFNγ release): no difference
Cytokine release (IFNγ) capacity of NK cells following exposure to H2O2 (NK cells [1]; vs untreated NK cells): improved
Time of HMOX1 expression peak in TIL [2]: 3 h
Activation of Nrf2 target genes in TIL ([2]; TIL from three melanoma patients KADA, ANRU, BEHA): robust activation
Effect on intracellular ROS levels in TIL ([3]; 72 h after AUF removal): effects remained
Fluorescence correlating to intracellular ROS levels in TIL ([3]; KADA and BEHA TIL): lowered
Time of HMOX1 expression peak in NK cells [4]: 6 h
HMOX1 expression in NK cells (fold change vs untreated) ([4]; already at 1 h): pronounced upregulation
Expression of the other Nrf2 target genes in NK cells (fold change vs untreated) ([4]; kinetic): more gradually increased over time
Viability of NK cells following exposure to H2O2 (NK cells [5]): improved viability
